Results from PMC6348381, “Discovery of an MLLT1/3 YEATS Domain Chemical Probe” (Angewandte Chemie (International Ed. in English), 2018).

Key:
MLLT1 YD [1] = target: T1, MLLT1 YD (Homo sapiens, UniProt Q03111); assay: AlphaScreen (AS) assay, MLLT1 YEATS domain; assay type: binding
T1 construct: made in house; host or cells: E. coli Rosetta
T1 sequence (Q03111 1-138 limits assumed): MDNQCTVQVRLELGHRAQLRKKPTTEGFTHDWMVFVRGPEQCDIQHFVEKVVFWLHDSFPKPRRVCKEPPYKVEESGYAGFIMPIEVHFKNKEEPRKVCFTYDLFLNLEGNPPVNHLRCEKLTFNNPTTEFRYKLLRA
Protocol: II.IV Protein Expression and Purification
Human bromodomains were cloned, expressed and purified as previously described. The cloning, expression and purification of human YEATS domains are described as follows; Sequences for the wild type YEATS domains of MLLT1, MLLT3, GAS41 and YEATS2 were cloned into expression vectors (Table S1). E. coli Rosetta cells were grown in TB medium at 37°C. Overexpression was induced after five hours by addition of IPTG to a final concentration of 0.4 mM and cells were incubated at 17°C overnight. Cells were harvested by centrifugation and the cell pellet was resuspended in cold binding buffer (50 mM Tris at pH 7.5, 500 mM NaCl, 20 mM imidazole, 2 mM DTT) on a magnetic stirring plate at 4°C. The suspension was lysed using an Avestin EmulsiFlex-C5 homogeniser (1 pass without pressure, four passes with pressure between 1000-1500 bar). The lysate was clarified via centrifugation at 16,000 rpm at 4°C for 1 hour (JLA-16 rotor in Beckmann Coulter Avanti J- […]
The supernatant was loaded onto a standard NiNTA column (HisTrap
FF, 5 ml, GE Healthcare Lifesciences) on an ÄKTAxpress system (GE). After washing with binding buffer, the target protein was eluted at 300 mM imidazole. The eluted peak fractions were pooled and concentrated to 5 ml (Amicon concentrators, 10 kDa molecular weight cut off (MWCO)) and then separated via size exclusion chromatography (buffered with 20 mM Tris at pH 7.5, 500 mM NaCl, 2 mM DTT) using a GE Superdex 75 column on an […]
(NanoDrop ND-1000 Spectrophotometer) and protein identity was verified via SDS-PAGE and LC/MS. Pooled fractions were then again concentrated to at least 2 mg/ml and stored at […]
(§1) (1 picture or pasted object on this page, not shown here)

MLLT1 YD [2] = target: T1, MLLT1 YD; assay: Isothermal titration calorimetry (ITC), MLLT1 YD; assay type: binding
48 bromodomains = assay: Thermal shift assay, bromodomain panel; assay type: binding, human; conditions: 50 μM compound concentrations
Protocol: II.VII Thermal Shift Assay[6]
Thermal melting experiments were carried out using an Mx3005p Real Time PCR machine (Stratagene). Proteins were buffered in 10 mM HEPES pH 7.5, 500 mM NaCl and assayed in a 96-well plate at a final concentration of 2 μM in 20 μL volume. Compounds were added at a final concentration of 50 μM. SYPRO Orange (Molecular Probes) was added as a fluorescence probe at a dilution of 1:1000. Excitation and emission filters for the SYPRO-Orange dye were set to 465 nm and 590 nm, respectively. The temperature was raised with a step of 3 °C per minute from 25 °C to 96 °C and fluorescence readings were taken at each interval. The unfolding curves were fitted using the Boltzmann equation to determine the middle point of the transition.

MLLT3 YD = target: T2, MLLT3 YD (Homo sapiens, UniProt P42568); assay: Isothermal titration calorimetry (ITC), MLLT3 YD; assay type: binding
T2 construct: made in house; host or cells: E. coli Rosetta
T2 sequence (P42568 1-138 limits assumed): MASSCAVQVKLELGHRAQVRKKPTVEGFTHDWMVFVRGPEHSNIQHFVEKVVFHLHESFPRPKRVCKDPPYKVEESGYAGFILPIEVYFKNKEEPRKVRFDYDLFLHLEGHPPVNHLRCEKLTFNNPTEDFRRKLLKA
Protocol: Supplementary Table 1. AlphaScreen selectivity screen of compound 92 over other acyllysine […]
II.III Isothermal Titration Calorimetry (ITC)
Experiments were carried out on a Nano -ITC Standard Volume Instrument (TA Instruments).
All experiments were carried out at 25 °C in 20 mM HEPES pH 7.5, 150 mM NaCl, 0.5 mM TCEP and 5% glycerol. Protein soluti ons were buffer exchanged by gel filtration. The titrations were conducted using an initial injection of 2 μL followed by 32 injections of 8 μL.
Background dilution heat was subtracted from each experiment. Thermodynamic parameters […]
changes in free energy, enthalpy and entropy respectively. Independent single site binding models were employed in data analysis.
(also on this page, place not known: ac yllysine Nano-ITC -T 1/ KB. ΔH Molar&ratio&[injectant/cell] Time&[s] Corrected&Heat&Rate&[ucal/s] Experiment&1 K Experiment&2 K K)
as §1

BRD4(1) = BRD4(1) (Homo sapiens, UniProt O60885); assay: AlphaScreen selectivity screen, BRD4 (1); assay type: binding
Description: (§2) IC50 (µM) IC50 (µM) IC50 (µM) IC50 (µM) (µM) (µM) (µM)
(§3) Supplementary Table 1. […]

FALZ = FALZ (Homo sapiens, UniProt Q12830); assay: AlphaScreen selectivity screen, FALZ; assay type: binding
Description: as §2, §3

[3] = target: T3, endogenous MLLT1 in HEK293 cells (Homo sapiens, UniProt Q03111); assay: Cellular thermal shift assay (CETSA), HEK293 cells; assay type: cell-based; conditions: Western blot
T3 construct: endogenous in cells; host or cells: HEK293
T3 sequence (Q03111 whole entry): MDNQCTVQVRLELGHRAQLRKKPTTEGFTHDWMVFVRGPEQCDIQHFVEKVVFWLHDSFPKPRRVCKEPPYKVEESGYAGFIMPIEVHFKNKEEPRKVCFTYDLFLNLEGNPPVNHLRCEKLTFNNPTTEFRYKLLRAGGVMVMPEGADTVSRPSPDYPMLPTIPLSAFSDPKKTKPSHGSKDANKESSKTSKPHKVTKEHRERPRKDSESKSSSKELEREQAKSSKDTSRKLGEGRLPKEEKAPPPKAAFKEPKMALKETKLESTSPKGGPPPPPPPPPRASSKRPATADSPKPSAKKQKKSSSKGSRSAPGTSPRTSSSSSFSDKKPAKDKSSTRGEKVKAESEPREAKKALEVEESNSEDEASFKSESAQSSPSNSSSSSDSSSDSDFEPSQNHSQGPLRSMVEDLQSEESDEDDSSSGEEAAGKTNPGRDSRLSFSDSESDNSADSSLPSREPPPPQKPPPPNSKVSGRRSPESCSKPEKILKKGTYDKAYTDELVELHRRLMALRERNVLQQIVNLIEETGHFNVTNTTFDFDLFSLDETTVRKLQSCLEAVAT
Protocol: Supplementary Table 2. Thermal stabilisation of compound 1, 92 and Bromosporine with recombinant human bromodomain proteins. *50 µM compound concentration. †10 µM compound […]
II.VIII Cellular Thermal Shift Assay[6]
HEK293 and MV4;11 cells were cultured at 37 °C in a humidified 5% CO2 atmosphere in DMEM Medium containing 10% FBS, respectively. Cells were grown until approximately […]
DMSO final concentrati on) for 30 minutes. Cells were then collected, washed with PBS, transferred in PCR tubes, and pelleted by centrifugation (300 g, 3 min, RT.) The PBS was removed, and the cell pellets heated at the indicated temperature for 3 minutes in a PCR machine (UNO96 , VMR) and then placed on ice. Lysis buffer (50 mM Tris pH 7.5, 0.8% v/v NP-40, 5% v/v glycerol, 1.5 mM MgCl2, 100 mM NaCl, 25 mM NaF, 1mM Na3VO4, 1mM PMSF, 1mM DTT, 10 μg/mL TLCK, 1 μg/mL Leupeptin, 1 μg/mL Aprotinin, 1 μg/mL soy bean trypsin, ≥250 units/ mL Benzonase) was added and the cells lysed by 3 freeze -thaw cycles in liquid nitrogen. Aggregated proteins were removed by centrifugation (17000 g, 20 min, 4 °C) and the protein concentration of the retained soluble fraction determined. 4× sample loading buffer (Bio-Rad) containing 20% v/v DTT was added and samples were heated for 6 min at 90 °C prior to separation by SDS -PAGE. […]

SMILES	IC50 (MLLT1 YD [1])	Kd (MLLT1 YD [2])	activity against 48 bromodomains in thermal shift assay (48 bromodomains)	Kd (MLLT3 YD)	inhibition of BRD4 (I) (BRD4(1); 10 μM using AS)	IC50 (BRD4(1); AlphaScreen selectivity screen)	inhibition of FALZ (FALZ; 10 μM using AS)	IC50 (FALZ; AlphaScreen selectivity screen)	heat shock stabilisation of endogenous MLLT1 (CETSA) [3]
COC(=O)c1ccc(C(=O)Nc2ccc3[nH]c(CN4CCCCC4)nc3c2)cc1 [Compound 1]	2100 ± 780 nM	1000 nM	no activity						
C[C@H]1CCCN1Cc1nc2cc(NC(=O)c3ccc4c(cnn4C)c3)ccc2[nH]1 [Compound 92]				77 nM	no inhibition	> 10000 nM	no inhibition	> 10000 nM	stabilisation
